We go through two compounds from ChEMBL document CHEMBL1764964, “Extending SAR of bile acids as FXR ligands: discovery of 23-N-(carbocinnamyloxy)-3α,7α-dihydroxy-6α-ethyl-24-nor-5β-cholan-23-amine” (Bioorg Med Chem, 2011).

Activity calls are given as the source filed them. The rule behind the calls is not given here.

The target of one assay is T1, Bile acid receptor (Homo sapiens, UniProt Q96RI1).
T1 sequence (Q96RI1 whole entry): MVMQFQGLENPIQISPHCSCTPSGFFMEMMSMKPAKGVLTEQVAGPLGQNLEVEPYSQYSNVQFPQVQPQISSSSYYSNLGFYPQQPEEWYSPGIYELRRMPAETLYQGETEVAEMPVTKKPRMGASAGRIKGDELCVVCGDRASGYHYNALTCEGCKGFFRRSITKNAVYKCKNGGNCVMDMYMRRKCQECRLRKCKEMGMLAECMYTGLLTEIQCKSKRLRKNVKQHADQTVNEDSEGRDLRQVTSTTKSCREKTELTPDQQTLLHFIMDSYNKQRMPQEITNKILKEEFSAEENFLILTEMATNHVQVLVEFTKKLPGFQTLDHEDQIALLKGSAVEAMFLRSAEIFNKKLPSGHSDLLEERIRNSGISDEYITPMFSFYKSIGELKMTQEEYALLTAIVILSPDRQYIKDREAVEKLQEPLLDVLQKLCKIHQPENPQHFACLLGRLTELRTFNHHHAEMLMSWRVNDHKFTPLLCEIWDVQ
As to the kind of experiment: Agonist activity at human GST-fused FXR LBD assessed as coactivator interaction with receptor ligand binding domain by Alphascreen assay. A general note: In Alpha technology, singlet oxygen from a donor bead excites a nearby acceptor bead.

The target in assay [1] is T2, Bile acid receptor (Homo sapiens) (UniProt Q96RI1).
T2 sequence (whole entry): T1 sequence (Q96RI1 whole entry)
Briefly: Agonist activity at human GST-fused FXR LBD assessed as coactivator interaction with receptor ligand binding domain by Alphascreen assay relative to CDCA.

The target in assay [2] is T2, Bile acid receptor (Homo sapiens). As to the kind of experiment: Agonist activity at human FXR expressed in HepG2 cells assessed as renilla luciferase activity at 1 uM by luciferase based transactivation assay. Type of assay: functional, cell-based.
Assay [3] deals with T3, G-protein coupled bile acid receptor 1 (Homo sapiens, UniProt Q8TDU6).
T3 sequence (Q8TDU6 whole entry): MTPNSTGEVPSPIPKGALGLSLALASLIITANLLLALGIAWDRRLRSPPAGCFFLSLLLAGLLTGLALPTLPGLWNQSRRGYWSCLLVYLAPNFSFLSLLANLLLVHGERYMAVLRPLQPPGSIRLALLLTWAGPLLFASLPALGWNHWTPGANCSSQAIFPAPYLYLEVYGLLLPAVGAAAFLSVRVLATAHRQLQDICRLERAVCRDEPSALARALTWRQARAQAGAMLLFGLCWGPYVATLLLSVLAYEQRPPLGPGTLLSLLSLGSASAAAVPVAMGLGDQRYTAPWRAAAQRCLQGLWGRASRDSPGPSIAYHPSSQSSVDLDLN
Briefly: Agonist activity at human TGR5 receptor expressed in NCI-H716 cells assessed as intracellular cAMP level by TR-FRET assay. The format is functional, cell-based. In general terms: Changes in cAMP serve as a functional read-out for many G protein-coupled receptors.

For assay [4], the target named is T2, Bile acid receptor (Homo sapiens). As to the kind of experiment: Agonist activity at human FXR expressed in HepG2 cells assessed as renilla luciferase activity at 20 uM by luciferase based transactivation assay. The format is functional, cell-based.

In general, EC50 refers to the concentration at which the effect is half-maximal.

In the case of `CC[C@H]1[C@@H](O)[C@@H]2[C@H](CC[C@]3(C)[C@@H]([C@H](C)CCNC(=O)OC/C=C/c4ccccc4)CC[C@@H]23)[C@@]2(C)CC[C@@H](O)C[C@@H]12`, the EC50 at Bile acid receptor turned out to be 150 nM; in assay [3], 55000 nM. Moreover, the Efficacy in assay [1] came out at 290%. Also, in assay [2], the outcome was Active.

Regarding `C[C@H](CCNC(=O)OC/C=C/c1ccccc1)C1CC[C@H]2[C@@H]3[C@H](O)CC4C[C@H](O)CC[C@]4(C)[C@H]3CC[C@]12C` (stereo partly drawn), the EC50 was 900 nM at Bile acid receptor and over 100000 nM in assay [3]. In addition, the Efficacy in assay [1] was 55%. In addition, the result in assay [4] was Active.
